Laboratory results: patent US20260297542A1, “HERBICIDE RESISTANT PLANTS” (SYNGENTA CROP PROTECTION AG, priority 2023, published 2026)
Positions count from the first letter of the chain named.

Tests used:
Experiment in all cases: E. coli hemG growth inhibition by herbicide, AtPPO1 variant
Assay type in all cases: cell-based
Conditions in all cases: read-out: percentage growth inhibition
AtPPO1 Q272H = target: T1, AtPPO1 Q272H (Arabidopsis thaliana, UniProt P55826, Q272H)
T1 construct: expressed in transfected cells; host or cells: E. coli BL21(DE3) hemG (hemG replaced by CmR), pET24a plasmid
T1 sequence (P55826 35-537 Q272H): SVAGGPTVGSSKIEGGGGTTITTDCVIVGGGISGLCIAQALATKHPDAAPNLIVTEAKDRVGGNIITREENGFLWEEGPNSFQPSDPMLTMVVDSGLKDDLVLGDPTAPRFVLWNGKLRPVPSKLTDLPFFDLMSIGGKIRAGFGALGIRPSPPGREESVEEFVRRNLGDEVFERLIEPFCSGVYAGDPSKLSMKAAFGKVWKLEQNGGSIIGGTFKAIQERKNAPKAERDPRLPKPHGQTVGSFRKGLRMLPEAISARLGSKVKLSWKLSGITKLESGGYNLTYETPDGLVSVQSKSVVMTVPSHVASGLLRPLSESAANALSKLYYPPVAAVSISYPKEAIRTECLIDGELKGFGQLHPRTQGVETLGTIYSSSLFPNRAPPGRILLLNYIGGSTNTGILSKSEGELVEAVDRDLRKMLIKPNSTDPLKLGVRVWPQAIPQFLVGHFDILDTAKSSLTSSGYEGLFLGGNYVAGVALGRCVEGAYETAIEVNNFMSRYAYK
Text: (§1) A pET24a plasmid containing a DNA sequence encoding a variant of PPO1 derived from Arabidopsis thaliana (AtPPO1), codon-optimised for expression in E. coli and under control of a T7 promoter, was synthesised by Twist Bioscience (SEQ ID NO:3). This plasmid was used as the basis of a Site Saturation Variant Library (SSVL) that substituted the codons at 352 amino acid positions for codons that encoded one of the other 19 amino acids, or removed the codon altogether, resulting in a translation product with a deletion at that position.
(§2) The SSVL was batch-transformed by electroporation into an E. coli BL21(DE3) hemG strain with the hemG gene replaced by CmR conferring resistance to chloramphenicol and spread onto LA supplemented with 50 μg/mL kanamycin, 25 μg/mL chloramphenicol and 20 μg/mL hematin. Each batch consisted of all the plasmids that contained variants at two sites.
(§3) Colonies from batch transformations were inoculated into 500 μL of Terrific broth supplemented with 50 μg/mL kanamycin, 25 μg/mL chloramphenicol and 20 μg/mL hematin in 96-deepwell blocks. Cultures were grown for 24 hours at 37° C. with shaking at 250 rpm.
(§4) Overnight cultures were centrifuged and the cell pellets resuspended with 500 μL of Terrific broth. The resuspended cultures were used at a ratio of 1:100 to inoculate a fresh 96-deepwell block containing 500 μL of Terrific broth supplemented with 0.1 mM IPTG, 50 μg/mL kanamycin, 25 μg/mL chloramphenicol and 6.25 ppm of herbicide […] or E or 0.78 ppm herbicide B or DMSO. Assay cultures were grown for 24 hours at 37° C. with shaking at 250 rpm with the OD600 being measured at 24 hours post inoculation. Strains that grew in both DMSO and herbicide were determined to be herbicide tolerant with the percentage of growth inhibition being calculated as below: […]

AtPPO1 Q272I = target: T2, AtPPO1 Q272I (Arabidopsis thaliana, UniProt P55826, Q272I)
T2 construct: expressed in transfected cells; host or cells: E. coli BL21(DE3) hemG (hemG replaced by CmR), pET24a plasmid
T2 sequence (P55826 35-537 Q272I): T1 sequence (P55826 35-537 Q272H) with H238I
Text: as §1, §2, §3, §4

AtPPO1 L360C = target: T3, AtPPO1 L360C (Arabidopsis thaliana, UniProt P55826, L360C)
T3 construct: expressed in transfected cells; host or cells: E. coli BL21(DE3) hemG (pET24a, T7 promoter)
T3 sequence (P55826 35-537 L360C): T1 sequence (P55826 35-537 Q272H) with H238Q, L326C
Text: as §1, §2, §3, §4

AtPPO1 L464Y = target: T4, AtPPO1 L464Y (Arabidopsis thaliana, UniProt P55826, L464Y)
T4 construct: expressed in transfected cells; host or cells: E. coli BL21(DE3) hemG, pET24a plasmid
T4 sequence (P55826 35-537 L464Y): T1 sequence (P55826 35-537 Q272H) with H238Q, L430Y
Text: as §1, §2, §3, §4

Compound | inhibition at 0.78 ppm (AtPPO1 Q272H) [%] | inhibition at 0.78 ppm (AtPPO1 Q272I) [%] | inhibition at 0.78 ppm (AtPPO1 L360C) [%] | inhibition at 0.78 ppm (AtPPO1 L464Y) [%] | inhibition at 6.25 ppm (AtPPO1 Q272H) [%] | inhibition at 6.25 ppm (AtPPO1 Q272I) [%] | inhibition at 6.25 ppm (AtPPO1 L360C) [%] | inhibition at 6.25 ppm (AtPPO1 L464Y) [%]
C#CCN1C(=O)C(F)(F)Oc2cc(F)c(-n3c(=O)n(C)c(=S)n(C)c3=O)cc21 [Herbicide B, trifludimoxazin] | 27 | 24 | 25 | 0 | – | – | – | –
CCOC(=O)[C@]1(C)CC(c2cc(-n3c(=O)n(C)c(=S)n(C)c3=O)c(F)cc2Cl)=NO1 [Herbicide D, ethyl (5S)-3-[2-chloro-5-(3,5-dimethyl-2,6-dioxo-4-thioxo-1,3,5-triazinan-1-yl)-4-fluoro-phenyl]-5-methyl-4H-isoxazole-5-carboxylate] | – | – | – | – | 28 | 29 | 21 | 12
CC(C)N(C)S(=O)(=O)NC(=O)c1cc(-n2c(=O)cc(C(F)(F)F)n(C)c2=O)c(F)cc1Cl [Herbicide E, saflufenacil] | – | – | – | – | 64 | 63 | 33 | 5
